The subject of assay [1] is STS26T. Briefly: drug sensitivity score (DSS, CellTiter-Glo viability, 72 h) (DSS (dimensionless)); higher = more sensitive; extreme values may be limits of the assay. Put shortly: (§1)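 Viability was scored by CellTiter-Glo ATP luminescence, scaled from vehicle to positive-control wells, with duplicates averaged where present. The cells, MPNST lines and primary human Schwann cells at 750–1000 per well, sat 72 h at 37 °C, 5% CO2, in 384-well plates preprinted with each compound at five concentrations in 10-fold steps. Four-parameter logistic fits were run on the data. These fits give drug sensitivity score and relative IC50 censored at the top concentration, and percent inhibition is reported at the top concentration.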
(In general: ATP-based viability assays read luminescence as a measure of living cells.)

In assay [2] the test system is HS-PSS. The assay is described as above. Put shortly: as §1
Assay [3] relates to YST-1. Described as above. Put shortly: as §1
In assay [4] the test system is HSC2 (primary human Schwann cells). Described as above. In outline: as §1
The test system of assay [5] is S462. Described as above. Put shortly: as §1
Assay [6] relates to ST8814. The assay is described as above. In outline:
as §1

Assay [7] deals with HS-Sch-2. The description is as above. In outline:
as §1

Assay [8] relates to HSC1 (primary human Schwann cells). Described as above. In outline: as §1
Assay [9] concerns S1507-2. Described as above. In outline: as §1
The test system of assay [10] is STS26T. The assay can be described thus: % inhibition of CellTiter-Glo viability at highest tested concentration (72 h), relative to DMSO and benzethonium chloride controls; higher = more inhibition. In outline:
as §1

In assay [11] the test system is HS-PSS. The description is as above. Put shortly:
as §1

The test system of assay [12] is YST-1. Described as above. Put shortly:
as §1

Assay [13] has as its system HSC2 (primary human Schwann cells). The assay is described as above. In outline: as §1
The subject of assay [14] is S462. The description is as above. In outline:
as §1

The test system of assay [15] is ST8814. Described as above. Put shortly:
as §1

Assay [16] relates to HS-Sch-2. Described as above. In outline: as §1
For assay [17], the system named is HSC1 (primary human Schwann cells). Described as above. In outline: as §1
Assay [18] concerns S1507-2. The assay is described as above. In outline:
as §1

The subject of assay [19] is STS26T. Briefly: drug sensitivity score (DSS, CellTox-Green cytotoxicity, 72 h) (DSS (dimensionless)); higher = more cytotoxic; extreme values may be limits of the assay. Put shortly:
(§2)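 MPNST cell lines and primary human Schwann cells were incubated 72 h at 37 °C in 384-well plates holding five 10-fold compound dilutions. CellTox-Green was added before seeding at a final 1:1000 dilution and reported fluorescence from DNA released by disrupted cells. Signals were scaled to vehicle and positive-control wells, and cultures failing plate quality control were dropped. Drug sensitivity score and relative IC50 come from four-parameter logistic fits, with IC50 censored at the top concentration.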

Assay [20] concerns HS-PSS. The assay is described as above. Put shortly: as §2
Assay [21] relates to HSC2 (primary human Schwann cells). Described as above. Put shortly:
as §2

Assay [22] concerns ST8814. The description is as above. In outline:
as §2

The test system of assay [23] is HSC1 (primary human Schwann cells). The description is as above. In outline:
as §2

The test system of assay [24] is S1507-2. Described as above. Put shortly: as §2

± gives the standard deviation of the averaged measurements.

For the compound `O=C(O)CCCc1ccc(N(CCCl)CCCl)cc1` [Chlorambucil] (max concentration tested 10000 nM), the drug sensitivity score in [1] was determined as 0; in assay [2], 0; in assay [3], 0.78; in assay [4], 0.471; in assay [5], 0; in assay [6] it was 0. Further, the drug sensitivity score in [7] amounted to 0; in [8] it was 0.621; in [9], 0; in assay [19] it was 0; in assay [20], 0; in [21] it was 0. The drug sensitivity score in [22], in assay [23] and in assay [24] was 0 each time. Moreover, the “% inhibition” value was -3.28% in assay [10]; 3.62% in assay [11]; 18.1% in [12]; 21.9% in assay [13]; -2.04 ± 1.9% in assay [14]; -14.6% in assay [15]. Besides, the “% inhibition” value is 1.59% in assay [16], 24.7% in assay [17] and -14.4 ± 0.28% in assay [18].
Take `Nc1nc(Cl)nc2c1ncn2[C@H]1C[C@H](O)[C@@H](CO)O1` [Cladribine] (max concentration tested 1000 nM): the drug sensitivity score in [1] amounted to 3.75; in [2] it was 1.59; in [3], 2.87; in assay [4] it was 6.3; in assay [5], 0.676 ± 0.56; in [6], 0.423. In addition, the drug sensitivity score stood at 3.37 in assay [7]; 5.81 in assay [8]; 0.0035 ± 0.005 in assay [9]; 0.902 in [19]; 0.65 in [20]; 5.38 in [21]. The figures for the drug sensitivity score in assay [22], in [23] and in [24] were 0.837, 4.05 and 4.43 ± 6.3, respectively. In addition, the “% inhibition” value came to 52.5% in assay [10]; 38.4% in assay [11]; 54.4% in assay [12]; 71.9% in assay [13]; 24.7 ± 8.6% in [14]; 21.3% in assay [15]. Moreover, the “% inhibition” value stood at 67.9% in [16], 61.2% in [17] and 9.03 ± 3% in assay [18].
Take `Nc1nc(Cl)nc2c1ncn2[C@@H]1O[C@H](CO)[C@@H](O)[C@@H]1F` [Clofarabine] (max concentration tested 10000 nM): the drug sensitivity score in assay [1] turned out to be 15.8; in assay [2], 13; in assay [3] it was 14.8; in assay [4], 17.5; in assay [5], 17.2 ± 2.3; in assay [6], 12.8. For the same compound, the drug sensitivity score in [7] came out at 18.2; in assay [8] it was 14.4; in assay [9], 11 ± 1.9; in assay [19] it was 6.47; in assay [20], 6.52; in assay [21] it was 15.8. Moreover, the drug sensitivity score in assay [22] stood at 8.58; in assay [23] it was 15.7; in [24] it was 3.61 ± 1.3. Besides, the “% inhibition” value in assay [10] worked out at 87.7%; in [11], 76%; in [12] it was 83.9%; in [13], 85.7%; in assay [14], 103 ± 1.1%; in assay [15], 98.8%. Moreover, the “% inhibition” value in assay [16] is 82.1%; in assay [17] it was 79.4%; in assay [18] it was 88.7 ± 1.4%.
As to `CCN(CC)CCOc1ccc(/C(=C(/Cl)c2ccccc2)c2ccccc2)cc1` [Clomifene] (max concentration tested 10000 nM), the drug sensitivity score was 6.27 in assay [1]; 6.39 in assay [2]; 1.77 in [3]; 6.36 in [4]; 5.36 ± 0.27 in assay [5]; 6.53 in assay [6]. Moreover, the drug sensitivity score in [7] is 5.21; in [8], 2.36; in assay [9], 6.57 ± 0.14; in assay [19] it was 6.15; in assay [20], 5.71; in [21] it was 7.92. Also, the drug sensitivity score in assay [22] is 6.68; in assay [23] it was 0; in assay [24] it was 4.48 ± 1.9. In addition, the “% inhibition” value in assay [10] stood at 92.4%; in [11] it was 87.8%; in assay [12], 44.2%; in [13], 91.5%; in [14], 77.6 ± 2.6%; in assay [15], 96.9%. For the same compound, the “% inhibition” value was 98.5% in [16], 25.9% in [17] and 95.46 ± 0.71% in assay [18].
As for `CC1(COc2ccc3c(c2)ncn3-c2ccc3cccc(N4CCC(N)CC4)c3n2)COC1` [Crenolanib] (max concentration tested 10000 nM), the drug sensitivity score was 6.09 in assay [1]; 4.89 in assay [2]; 5.36 in assay [3]; 5.95 in assay [4]; 5.16 ± 0.26 in [5]; 8.29 in assay [6]. Besides, the drug sensitivity score in assay [7] was determined as 10.5; in [8], 5.48; in assay [9], 7 ± 2.5; in [19], 5.47; in assay [20], 4.69; in [21] it was 3.85. Moreover, the figures for the drug sensitivity score in assay [22], in assay [23] and in assay [24] were 7.03, 3.33 and 10.4 ± 4.5, respectively. Also, the “% inhibition” value in assay [10] is 95.3%; in assay [11] it was 101%; in assay [12] it was 101%; in assay [13], 85.3%; in [14], 95.09 ± 0.94%; in assay [15], 95%. Also, the “% inhibition” value in assay [16] amounted to 101%; in [17] it was 84.7%; in [18], 95.6 ± 0.82%.
Regarding `C[C@@H](Oc1cc(-c2cnn(C3CCNCC3)c2)cnc1N)c1c(Cl)ccc(F)c1Cl` [Crizotinib] (max concentration tested 1000 nM), the drug sensitivity score in [1] was 0; in assay [2] it was 2.17; in assay [3], 0.85; in [4], 1.21; in assay [5], 0.409 ± 0.58; in assay [6] it was 0. For the same compound, the drug sensitivity score came out at 0.41 in [7]; 2.09 in assay [8]; 0.701 ± 0.72 in assay [9]; 0 in assay [19]; 0 in assay [20]; 0 in assay [21]. The drug sensitivity score is 0 in [22], 0 in assay [23] and 1.38 ± 2 in [24]. Further, the “% inhibition” value amounted to 1.87% in [10]; 48.6% in [11]; 27.5% in [12]; 20.8% in [13]; 13.3 ± 4.8% in assay [14]; 7.26% in [15]. Moreover, the results for the “% inhibition” value in [16], in [17] and in assay [18] were 19.5%, 21.3% and 13.3 ± 2.3%, respectively.

The term % inhibition denotes the drop in the measured response relative to a control, in per cent.
